Reference: patent US20220152031A1, “PYRIDAZINONES AND METHODS OF USE THEREOF” (Goldfinch Bio, Inc., priority 2019, published 2022)

These molecules were tested against T1, TRPC5 (Homo sapiens, UniProt Q9UL62) (assay: TRPC5 activity assay (FLIPR calcium fluorescence, HEK-TREx hTRPC5 cells)). Details: HEK-TREx hTRPC5 cells, FLIPR, 30 μM Riluzole stimulation; read-out: TRPC5.
T1 construct: expressed in transfected cells
T1 sequence (Q9UL62 1-973): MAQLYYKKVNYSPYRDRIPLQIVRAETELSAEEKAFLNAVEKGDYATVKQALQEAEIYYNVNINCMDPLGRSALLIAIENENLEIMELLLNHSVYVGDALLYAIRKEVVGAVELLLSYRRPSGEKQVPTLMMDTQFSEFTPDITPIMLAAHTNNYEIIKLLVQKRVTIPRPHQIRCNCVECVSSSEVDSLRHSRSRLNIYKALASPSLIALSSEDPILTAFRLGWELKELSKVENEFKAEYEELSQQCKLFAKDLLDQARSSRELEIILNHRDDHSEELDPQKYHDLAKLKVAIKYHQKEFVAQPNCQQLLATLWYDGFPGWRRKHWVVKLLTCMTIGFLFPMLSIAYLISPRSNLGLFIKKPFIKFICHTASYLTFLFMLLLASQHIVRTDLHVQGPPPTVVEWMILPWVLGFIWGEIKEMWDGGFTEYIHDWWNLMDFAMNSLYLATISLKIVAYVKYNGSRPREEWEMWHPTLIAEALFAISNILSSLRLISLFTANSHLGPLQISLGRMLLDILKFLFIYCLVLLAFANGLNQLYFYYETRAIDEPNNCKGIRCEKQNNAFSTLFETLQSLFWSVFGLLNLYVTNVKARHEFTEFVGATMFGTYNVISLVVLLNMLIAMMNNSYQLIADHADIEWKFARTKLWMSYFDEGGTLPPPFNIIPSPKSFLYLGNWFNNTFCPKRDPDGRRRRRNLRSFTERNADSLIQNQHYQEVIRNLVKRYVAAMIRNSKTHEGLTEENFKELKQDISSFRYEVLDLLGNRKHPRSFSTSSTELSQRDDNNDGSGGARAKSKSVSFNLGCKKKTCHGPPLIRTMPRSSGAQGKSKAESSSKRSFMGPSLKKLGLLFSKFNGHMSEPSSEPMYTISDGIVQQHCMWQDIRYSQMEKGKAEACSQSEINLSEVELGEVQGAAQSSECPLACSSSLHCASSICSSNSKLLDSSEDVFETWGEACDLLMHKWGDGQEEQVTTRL
Assay type: cell-based
Experimental: ICLN-1633 cells (HEK-TREx hTRPC5) expressing TRPC5 were generated as follows. Commercially available HekTrex-293 cells were seeded at 0.7×10^6 cells/well in a 1×6-well plate 24 hrs prior to transfection using 2 mL cell growth media containing no antibiotics (lx DMEM/high glucose (Hyclone #SH30022.02); 10% fetal bovine serum (Sigma) 2 mM sodium pyruvate, 10 mM HEPES). […] On day 2, 2 μg of plasmid DNA plus 6 μl of Xtreme-GENE HP reagent in Optimem (200 μl total volume) was prepared and incubated for 15 min at room temperature. This plasmid solution was then gently overlayed dropwise onto each well and the plate was gently swirled to mix complex with the media for approximately 30 seconds. Transfected cells were incubated at 37° C. in a 10% CO2 incubator for 24 hrs. The transfected cells were harvested and transferred into 2×150 mm dishes containing cell growth media with no antibiotics at 37° C.
The next day selection was initiated to generate a stable pool by adding cell growth media containing 150 μg/mL Hygromycin and 5 μg/mL Blasticidin and cells were allowed to grow. Media with the selection agent was changed every 1-2 days as needed to remove dead cells. After 7 days, the hygromycin concentration was reduced to 75 μg/mL and cells growth was allowed to continue.
Single clones were selected as follows. The stable pool was diluted to 10 cells/mL and seeded (100 μl/well) into 24×96 well plates (˜1 cell/well) and allowed to grow for 7 days in cell growth media. Fresh media (100 μl) was added and the cells allowed to grow for another 1-2 weeks and then stored frozen or used immediately.
10-point dose response curves were generated using the Echo-550 acoustic dispenser. Compound source plates were made by serially diluting compound stocks to create 10 mM, 1 mM, and 0.1 mM solutions in DMSO into Echo certified LDV plates. The Echo then serially spotted 100% DMSO stock solutions into source dose response plates to generate a 4-fold dilution scheme. 100% DMSO was added to the spotted dose response plates to bring the final volume to 5 μl. 300 nl of the dose response stock plate was then spotted into pre-incubation and stimulation assay plates. 50 μl of pre-incubation buffer and 100 μl of stimulation buffer was then added to the plates resulting in a final assay test concentration range of 30 μM to 0.0001 μM with a final DMSO concentration of 0.3%.
Human ICLN-1633 cells expressing were plated onto 384 well, black PDL-coated microplates and maintained in TRPC5 growth media the day prior to use for experiments. TRPC5 expression was induced by the application of 1 μg/mL tetracycline at the time of plating. […] Cells are incubated at room temperature, protected from light, for 60-90 minutes. After the incubation period, the dye is removed and replaced with 10 μl of EBSS. Cell, pre-incubation and stimulation plates are loaded onto the FLIPR-II and the assay is initiated. The FLIPR measures a 10 second baseline and then adds 10 μl of 2× compounds (or controls). Changes in fluorescence are monitored for an additional 5 minutes. After the 5 minute pre-incubation, 20 μl of 2× Riluzole (with 1× compound or controls) is added to the cell plate. The final Riluzole stimulation concentration in the assay is 30 μM. After the Riluzole addition, changes in fluorescence are monitored for an additional 5 minutes.
Compound modulation of TRPC5 calcium response was determined as follows. After the Englerin A, fluorescence was monitored for a 5-minute period. The maximum relative fluorescence response (minus the control response of 1 μM of an internal control compound known to maximally block TRPC5 calcium response, the “REF INHIB” in the formula below) was captured and exported from the FLIPR.
Compound effect is calculated as % inhibition using the following formula: […]
wherein “RFU” is the relative fluorescent units.

Compound	IC50 [nM]
C[C@@H](O)c1nc2c(c(Oc3ccccc3C(F)(F)F)n1)CCN(c1cn[nH]c(=O)c1Cl)C2 (single isomer, unassigned) [Compound 122]	< 50
C[C@H](O)c1nc2c(c(Oc3ccccc3C(F)(F)F)n1)CCN(c1cn[nH]c(=O)c1Cl)C2 (single isomer, unassigned) [Compound 123]	50 to 500
O=c1[nH]ncc(N2CCc3c(ncnc3Oc3ccccc3Cl)C2)c1Cl [Compound 101]	< 50
Nc1nc2c(c(Oc3ccccc3C(F)(F)F)n1)CCN(c1cn[nH]c(=O)c1Cl)C2 [Compound 102]	< 50
O=c1[nH]ncc(N2CCc3c(ncnc3Oc3ccccc3C(F)F)C2)c1Cl [Compound 103, 4-Chloro-5-[4-[2-(difluoromethyl)phenoxy]-5H,6H,7H,8H-pyrido[3,4-d]pyrimidin-7-yl]-2,3-dihydropyridazin-3-one]	< 50
O=c1[nH]ncc(N2CCc3c(ncnc3Oc3ccc(F)cc3C(F)F)C2)c1Cl [Compound 105]	< 50
O=c1[nH]ncc(N2CCc3c(ncnc3Oc3cc(F)ccc3C(F)(F)F)C2)c1Cl [Compound 106]	< 50
O=c1[nH]ncc(N2CCc3c(ncnc3Oc3cnccc3C(F)(F)F)C2)c1Cl [Compound 107]	< 50
N#Cc1cccc(Oc2ncnc3c2CCN(c2cn[nH]c(=O)c2Cl)C3)c1Cl [Compound 108, 2-Chloro-3-[[7-(5-chloro-6-oxo-1,6-dihydropyridazin-4-yl)-5H,6H,7H,8H-pyrido[3,4-d]pyrimidin-4-yl]oxy]benzonitrile]	50 to 500
CCc1c(F)cccc1Oc1ncnc2c1CCN(c1cn[nH]c(=O)c1Cl)C2 [Compound 109, 4-Chloro-5-[4-(2-ethyl-3-fluorophenoxy)-5H,6H,7H,8H-pyrido[3,4-d]pyrimidin-7-yl]-2,3-dihydropyridazin-3-one]	< 50
COc1nc2c(c(Oc3ccccc3C(F)(F)F)n1)CCN(c1cn[nH]c(=O)c1Cl)C2 [Compound 110, 4-Chloro-5-[2-methoxy-4-[2-(trifluoromethyl)phenoxy]-5H,6H,7H,8H-pyrido[3,4-d]pyrimidin-7-yl]-2,3-dihydropyridazin-3-one]	50 to 500
N#Cc1cccc(Oc2ncnc3c2CCN(c2cn[nH]c(=O)c2Cl)C3)c1C(F)(F)F [Compound 111, 3-[[7-(5-Chloro-6-oxo-1,6-dihydropyridazin-4-yl)-5H,6H,7H,8H-pyrido[3,4-d]pyrimidin-4-yl]oxy]-2-(trifluoromethyl)benzonitrile]	50 to 500
Nc1nc2c(c(Oc3ccc(F)cc3Cl)n1)CCN(c1cn[nH]c(=O)c1Cl)C2 [Compound 112, 5-[2-amino-4-(2-chloro-4-fluorophenoxy)-5H,6H,7H,8H-pyrido[3,4-d]pyrimidin-7-yl]-4-chloro-2,3-dihydropyridazin-3-one]	< 50
Nc1nc2c(c(Oc3ccccc3Cl)n1)CCN(c1cn[nH]c(=O)c1Cl)C2 [Compound 113]	< 50
O=c1[nH]ncc(N2CCc3c(nc(CO)nc3Oc3ccc(F)cc3Cl)C2)c1Cl [Compound 114]	< 50
O=c1[nH]ncc(N2CCc3c(nc(NCCO)nc3Oc3ccccc3C(F)(F)F)C2)c1Cl [Compound 115, 4-chloro-5-[2-[(2-hydroxyethyl)amino]-4-[2-(trifluoromethyl)phenoxy]-5H,6H,7H,8H-pyrido[3,4-d]pyrimidin-7-yl]-2,3-dihydropyridazin-3-one]	50 to 500
Nc1nc2c(c(Oc3ccc(F)cc3C(F)(F)F)n1)CCN(c1cn[nH]c(=O)c1Cl)C2 [Compound 116]	< 50
C[C@@H]1c2ncnc(Oc3ccc(F)cc3Cl)c2CCN1c1cn[nH]c(=O)c1Cl [Compound 118, 4-chloro-5-[(8R)-4-(2-chloro-4-fluorophenoxy)-8-methyl-5H,6H,7H,8H-pyrido[3,4-d]pyrimidin-7-yl]-2,3-dihydropyridazin-3-one]	50 to 500
C[C@@H](O)c1nc2c(c(Oc3ccc(F)cc3Cl)n1)CCN(c1cn[nH]c(=O)c1Cl)C2 [Compound 119]	< 50
O=c1[nH]ncc(N2CCc3c(ccnc3Oc3ccc(F)cc3C(F)(F)F)C2)c1Cl [Compound 120, 4-chloro-5-[5-[4-fluoro-2-(trifluoromethyl)phenoxy]-1,2,3,4-tetrahydro-2,6-naphthyridin-2-yl]-2,3-dihydropyridazin-3-one]	< 50
O=c1[nH]ncc(N2CCc3c(ncnc3Oc3c(F)cccc3C(F)(F)F)C2)c1Cl [Compound 121]	< 50
Cc1cc(F)ccc1Oc1ncnc2c1CCN(c1cn[nH]c(=O)c1Cl)C2 [Compound 124]	< 50
O=c1[nH]ncc(N2CCc3c(nc(CO)nc3Oc3ccc(F)cc3C(F)(F)F)C2)c1Cl [Compound 125]	< 50
CN(c1ccc(F)cc1C(F)(F)F)c1cc(=O)n(C)c2c1CCN(c1cn[nH]c(=O)c1Cl)C2 [Compound 127, 7-(5-Chloro-6-oxo-1,6-dihydropyridazin-4-yl)-4-[[4-fluoro-2-(trifluoromethyl)phenyl](methyl)amino]-1-methyl-1,2,5,6,7,8-hexahydro-1,7-naphthyridin-2-one]	50 to 500
O=c1[nH]ncc(N2CCc3c(nc(CO)nc3Oc3ccccc3C(F)(F)F)C2)c1Cl [Compound 128]	< 50
CN(c1cnccc1C(F)(F)F)c1ncnc2c1CCN(c1cn[nH]c(=O)c1Cl)C2 [Compound 131, 4-chloro-5-(4-[methyl[4-(trifluoromethyl)pyridin-3-yl]amino]-5H,6H,7H,8H-pyrido[3,4-d]pyrimidin-7-yl)-2,3-dihydropyridazin-3-one]	< 50
O=c1[nH]ncc(N2CCc3c(ncnc3C3(c4ccc(F)cc4C(F)(F)F)CC3)C2)c1Cl [Compound 132, 4-Chloro-5-(4-[1-[4-fluoro-2-(trifluoromethyl)phenyl]cyclopropyl]-5H,6H,7H,8H-pyrido[3,4-d]pyrimidin-7-yl)-2,3-dihydropyridazin-3-one]	50 to 500
C[C@@H]1CCN(Cc2ccccc2)C[C@@H]1N(C)c1ncnc2c1CCN(c1cn[nH]c(=O)c1Cl)C2 [Compound 133, 5-(4-[[(3R,4R)-1-Benzyl-4-methylpiperidin-3-yl](methyl)amino]-5H,6H,7H,8H-pyrido[3,4-d]pyrimidin-7-yl)-4-chloro-2,3-dihydropyridazin-3-one]	50 to 500
C[C@H]1CCN(Cc2ccccc2)C[C@H]1N(C)c1ncnc2c1CCN(c1cn[nH]c(=O)c1Cl)C2 [Compound 133a]	500 to 1000
